Experimental data reported in US20240269139A1, “COMPOUNDS FOR TARGETED PROTEIN DEGRADATION OF KINASES” (DANA-FARBER CANCER INSTITUTE, INC., priority 2020, published 2024).
Where two headings read alike, the source gives them in different places.

Experiments:
Format in all cases: cell-based
[1] = target: protein kinases (human kinome) (Homo sapiens, UniProt Q2M2I8)
[2] = target: protein kinases (human kinome) (Homo sapiens, UniProt P30291); details: for logFC of WEE1: WEE1 P30291-1
[3] = target: protein kinases (human kinome) (Homo sapiens, UniProt Q00534); details: for logFC CDK6: CDK6 (Q00534), direction down; for logFC of CDK6 (Q00534): down
Chain of protein kinases (human kinome) (Homo sapiens, UniProt Q00534) (Q00534 whole entry): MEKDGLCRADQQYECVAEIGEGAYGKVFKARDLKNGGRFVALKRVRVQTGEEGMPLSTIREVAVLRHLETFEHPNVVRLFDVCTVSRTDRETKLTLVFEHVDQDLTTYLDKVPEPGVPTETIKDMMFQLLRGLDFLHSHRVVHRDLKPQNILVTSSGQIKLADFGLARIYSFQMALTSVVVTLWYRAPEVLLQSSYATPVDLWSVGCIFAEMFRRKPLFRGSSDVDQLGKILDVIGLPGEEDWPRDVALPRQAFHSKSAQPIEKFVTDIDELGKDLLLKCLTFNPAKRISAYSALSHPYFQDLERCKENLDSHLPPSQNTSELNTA

[4] = target: protein kinases (human kinome) (Homo sapiens, UniProt P11802)
Chain of protein kinases (human kinome) (Homo sapiens, UniProt P11802) (P11802 whole entry): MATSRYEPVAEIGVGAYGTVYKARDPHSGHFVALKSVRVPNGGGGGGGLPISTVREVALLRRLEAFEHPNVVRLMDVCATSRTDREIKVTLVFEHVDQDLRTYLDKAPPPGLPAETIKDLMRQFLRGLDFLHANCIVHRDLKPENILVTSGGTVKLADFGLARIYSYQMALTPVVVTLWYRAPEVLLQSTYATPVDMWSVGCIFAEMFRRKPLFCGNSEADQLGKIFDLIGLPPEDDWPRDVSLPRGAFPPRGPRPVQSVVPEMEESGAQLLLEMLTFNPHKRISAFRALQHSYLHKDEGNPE

[5] = target: protein kinases (human kinome) (Homo sapiens, UniProt Q8TDR2)
Chain of protein kinases (human kinome) (Homo sapiens, UniProt Q8TDR2) (Q8TDR2 whole entry): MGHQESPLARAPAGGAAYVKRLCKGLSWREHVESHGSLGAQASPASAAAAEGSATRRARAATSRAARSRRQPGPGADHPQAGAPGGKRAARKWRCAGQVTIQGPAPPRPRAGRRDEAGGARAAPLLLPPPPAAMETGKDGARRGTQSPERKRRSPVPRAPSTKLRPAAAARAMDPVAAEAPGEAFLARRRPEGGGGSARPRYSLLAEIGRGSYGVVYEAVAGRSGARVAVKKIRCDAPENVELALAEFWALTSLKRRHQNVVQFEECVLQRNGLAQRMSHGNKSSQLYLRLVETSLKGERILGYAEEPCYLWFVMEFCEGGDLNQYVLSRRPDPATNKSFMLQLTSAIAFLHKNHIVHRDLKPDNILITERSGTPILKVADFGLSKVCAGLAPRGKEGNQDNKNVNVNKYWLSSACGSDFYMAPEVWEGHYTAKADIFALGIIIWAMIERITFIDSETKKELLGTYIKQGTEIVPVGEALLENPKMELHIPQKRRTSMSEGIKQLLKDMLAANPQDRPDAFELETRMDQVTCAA

[6] = AAK1 (Q2M218-1), experiment wp195, down
[7] = AAK1, accession Q2M218-1, experiment wp195, direction of change down
[8] = AAK1 (Q2M218-1), experiment wp045, down
[9] = AAK1, accession Q2M218-1, experiment wp045, direction of change down
[10] = experiment wp076, degrader vs DMSO
[11] = AAK1 (Q2M218-1), experiment wp146, down
[12] = AAK1, accession Q2M218-1, experiment wp146, direction of change down

Chain of protein kinases (human kinome) (Homo sapiens, UniProt Q2M2I8) (Q2M2I8 whole entry): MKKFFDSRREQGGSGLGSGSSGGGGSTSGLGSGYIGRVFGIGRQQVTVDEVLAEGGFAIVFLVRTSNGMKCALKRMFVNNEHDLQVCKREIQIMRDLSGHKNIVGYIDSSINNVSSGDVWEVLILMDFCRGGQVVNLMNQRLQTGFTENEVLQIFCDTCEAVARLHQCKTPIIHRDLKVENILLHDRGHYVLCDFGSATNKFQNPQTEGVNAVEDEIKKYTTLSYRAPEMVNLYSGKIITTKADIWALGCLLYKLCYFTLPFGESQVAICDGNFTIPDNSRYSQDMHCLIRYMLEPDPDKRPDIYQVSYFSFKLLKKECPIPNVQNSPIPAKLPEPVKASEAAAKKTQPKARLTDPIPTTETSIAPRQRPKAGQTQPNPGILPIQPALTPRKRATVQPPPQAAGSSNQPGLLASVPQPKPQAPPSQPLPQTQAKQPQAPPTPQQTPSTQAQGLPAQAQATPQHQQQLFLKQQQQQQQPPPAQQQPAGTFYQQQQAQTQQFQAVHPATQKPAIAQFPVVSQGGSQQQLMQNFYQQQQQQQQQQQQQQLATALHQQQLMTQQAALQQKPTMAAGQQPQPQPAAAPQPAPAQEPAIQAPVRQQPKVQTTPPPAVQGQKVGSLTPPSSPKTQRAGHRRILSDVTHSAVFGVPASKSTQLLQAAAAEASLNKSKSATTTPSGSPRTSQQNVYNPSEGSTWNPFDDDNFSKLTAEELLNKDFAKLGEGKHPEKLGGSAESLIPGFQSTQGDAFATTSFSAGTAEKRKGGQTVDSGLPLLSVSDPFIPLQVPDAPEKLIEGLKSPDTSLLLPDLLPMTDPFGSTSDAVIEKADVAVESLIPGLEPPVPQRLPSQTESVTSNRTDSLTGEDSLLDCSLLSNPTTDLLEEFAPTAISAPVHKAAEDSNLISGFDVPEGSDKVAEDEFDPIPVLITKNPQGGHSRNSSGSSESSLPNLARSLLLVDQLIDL
Chain of protein kinases (human kinome) (Homo sapiens, UniProt P30291) (P30291 whole entry): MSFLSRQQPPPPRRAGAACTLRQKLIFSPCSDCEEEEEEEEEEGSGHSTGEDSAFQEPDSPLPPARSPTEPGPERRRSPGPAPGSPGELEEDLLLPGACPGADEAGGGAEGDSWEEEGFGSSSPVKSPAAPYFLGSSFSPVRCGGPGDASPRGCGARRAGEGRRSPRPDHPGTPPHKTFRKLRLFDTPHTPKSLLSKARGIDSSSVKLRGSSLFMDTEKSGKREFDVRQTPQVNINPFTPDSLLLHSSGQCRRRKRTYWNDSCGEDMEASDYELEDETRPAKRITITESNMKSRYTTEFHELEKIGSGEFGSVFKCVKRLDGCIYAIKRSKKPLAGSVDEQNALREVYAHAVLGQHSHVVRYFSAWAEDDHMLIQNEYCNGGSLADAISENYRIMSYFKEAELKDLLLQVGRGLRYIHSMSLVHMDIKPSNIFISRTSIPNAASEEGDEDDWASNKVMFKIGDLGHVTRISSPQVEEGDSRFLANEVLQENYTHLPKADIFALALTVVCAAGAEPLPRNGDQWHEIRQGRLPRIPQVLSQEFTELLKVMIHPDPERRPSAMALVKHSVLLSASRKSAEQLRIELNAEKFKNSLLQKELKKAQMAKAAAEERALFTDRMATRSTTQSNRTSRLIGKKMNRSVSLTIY

O=C(COc1cccc2c1C(=O)N(C1CCC(=O)NC1=O)C2=O)NCCCCCCCN1CCc2cc(Nc3ncc(C4CC4)c(NCCCNC(=O)C4CCC4)n3)ccc2C1 (centres unmarked) [BSJ.04.178]
logFC AAK1 ([1]; AAK1 (Q2M218-1), experiment wp134, down): −3.342
logFC AAK1 ([1]; AAK1, accession Q2M218-1, experiment wp134, direction of change down): −3.342
logFC of WEE1 ([2]; experiment wp134): −0.5688
logFC WEE1 (P30291-1) ([2]; experiment wp134): −0.5688

Cc1ncsc1-c1ccc([C@H](C)NC(=O)[C@@H]2C[C@@H](O)CN2C(=O)[C@@H](NC(=O)CCCCCN2CCc3cc(Nc4ncc(C5CC5)c(NCCCNC(=O)C5CCC5)n4)ccc3C2)C(C)(C)C)cc1 [BSJ.05.026]
logFC AAK1 [1, 6]: −3.073
logFC AAK1 [1, 7]: −3.073
logFC WEE1 (P30291-1) ([2]; Experiment wp195): −0.8876
logFC of WEE1 ([2]; experiment wp196): −0.8876

CS(=O)(=O)Nc1cccc(-c2csc3cnc(Nc4ccc(N5CCN(CCCCCOc6cccc7c6C(=O)N(C6CCC(=O)NC6=O)C7=O)CC5)cc4)nc23)c1 (centres unmarked) [DB0614, N-(3-(2-((4-(4-(5-((2-(2,6-Dioxopiperidin-3-yl)-1,3-dioxoisoindolin-4-yl)oxy)pentyl)piperazin-1-yl)phenyl)amino)thieno[3,2-d]pyrimidin-7-yl)phenyl)methanesulfonamide]
logFC AAK1 [1, 8]: −1.863
logFC AAK1 ([1]; AAK1 (Q2M218-1), experiment wp117, down): −1.652
logFC AAK1 [1, 9]: −1.863
logFC AAK1 ([1]; AAK1, accession Q2M218-1, experiment wp117, direction of change down): −1.662
logFC CDK6 ([3]; experiment wp045): −2.265
logFC CDK6 ([3]; experiment wp117): −2.079
logFC of CDK6 (Q00534) ([3]; Experiment wp045): −2.265
logFC of CDK6 (Q00534) ([3]; Experiment wp117): −2.079
logFC CDK4 (P11802) ([4]; experiment wp045): −1.539
logFC CDK4 (P11802) ([4]; experiment wp117): −1.539
logFC of WEE1 ([2]; experiment wp117): −1.777
logFC WEE1 (P30291-1) ([2]; experiment wp045): −1.876
logFC WEE1 (P30291-1) ([2]; experiment wp117): −1.777

Cc1ccc(NC(=O)c2cccc(C(F)(F)F)c2)cc1N1Cc2cnc(Nc3ccc(N4CCN(Cc5cn(CCCCCOc6cccc7c6C(=O)N(C6CCC(=O)NC6=O)C7=O)nn5)CC4)nc3)nc2N(C)C1=O (centres unmarked) [DB0646, N-(3-(7-((6-(4-((1-(5-((2-(2,6-Dioxopiperidin-3-yl)-1,3-dioxoisoindolin-4-yl)oxy)pentyl)-1H-1,2,3-triazol-4-yl)methyl)piperazin-1-v)pyridin-3-yl)amino)-1-methyl-2-oxo-1,4-dihydropyrimido[4,5-d]pyrimidin-3(2H)-yl)-4-methylphenyl)-3-(trifluoromethyl)benzamide]
logFC CDK4 (P11802) ([4]; experiment wp045): −0.9012
logFC CDK4 (P11802) ([4]; experiment wp103): −0.5015
logFC CDK4 (P11802) ([4]; experiment wp107): −0.5565
logFC CDK4 (P11802) ([4]; experiment wp117): −0.6673
logFC CDK4 (P11802) ([4]; experiment wp152): −0.736
logFC CDK4 (P11802) ([4]; experiment wp160, 4 hr): −0.7263
logFC CDK4 (P11802) ([4]; experiment wp160, 8 hr): −1.114
logFC of WEE1 ([2]; experiment wp160, 8 hr): −0.352
logFC WEE1 (P30291-1) ([2]; experiment wp160, 8 hr): −0.352

Cc1ccc(NC(=O)c2cccc(C(F)(F)F)c2)cc1N1Cc2cnc(Nc3ccc(N4CCN(CCCOc5cccc6c5C(=O)N(C5CCC(=O)NC5=O)C6=O)CC4)nc3)nc2N(C)C1=O (centres unmarked) [DB0662]
logFC CDK4 (P11802) ([4]; experiment wp168): −0.9883

Cc1ccc(NC(=O)c2cccc(C(F)(F)F)c2)cc1N1Cc2cnc(Nc3ccc(N4CCN(CCCCCCOc5cccc6c5C(=O)N(C5CCC(=O)NC5=O)C6=O)CC4)nc3)nc2N(C)C1=O (centres unmarked) [DB0663]
logFC CDK4 (P11802) ([4]; experiment wp045): −0.6823

Cc1ccc(NC(=O)c2cccc(C(F)(F)F)c2)cc1N1Cc2cnc(Nc3ccc(N4CCN(CCCCC(=O)N[C@H](C(=O)N5C[C@H](O)C[C@H]5C(=O)N[C@@H](C)c5ccc(-c6scnc6C)cc5)C(C)(C)C)CC4)nc3)nc2N(C)C1=O [DB1113]
logFC STK35 ([5]; Accession Q8TDR2, experiment wp168, direction down): −0.7606
logFC STK35 ([5]; STK35 (Q8TDR2), experiment wp168): −0.7606
logFC CDK4 (P11802) ([4]; experiment wp168): −0.4373

Cc1ncsc1-c1ccc([C@H](C)NC(=O)[C@@H]2C[C@@H](O)CN2C(=O)[C@@H](NC(=O)CCOCCOCCN2CCN(c3ccc(Nc4ncc(Cl)c(Nc5ccccc5S(=O)(=O)C(C)C)n4)cc3)CC2)C(C)(C)C)cc1 [FMF.06.098.1]
logFC STK35 ([5]; Accession Q8TDR2, experiment wp108, direction down): −0.6029
logFC STK35 ([5]; Accession Q8TDR2, experiment wp114, direction down): −0.5116
logFC STK35 ([5]; Accession Q8TDR2, experiment wp131, direction down): −0.656
logFC STK35 ([5]; STK35 (Q8TDR2), experiment wp108): −0.6029
logFC STK35 ([5]; STK35 (Q8TDR2), experiment wp114): −0.5116
logFC STK35 ([5]; STK35 (Q8TDR2), experiment wp131): −0.656
logFC AAK1 ([1]; AAK1 (Q2M218-1), experiment wp108, down): −0.4346
logFC AAK1 ([1]; AAK1 (Q2M218-1), experiment wp114, down): −0.485
logFC AAK1 ([1]; AAK1 (Q2M218-1), experiment wp131, down): −0.7293
logFC AAK1 ([1]; AAK1, accession Q2M218-1, experiment wp108, direction of change down): −0.4346
logFC AAK1 ([1]; AAK1, accession Q2M218-1, experiment wp114, direction of change down): −0.485
logFC AAK1 ([1]; AAK1, accession Q2M218-1, experiment wp131, direction of change down): −0.7293
logFC CDK6 ([3]; experiment wp108): −0.3588
logFC CDK6 ([3]; experiment wp131): −0.5377
logFC of CDK6 (Q00534) ([3]; Experiment wp108): −0.3588
logFC of CDK6 (Q00534) ([3]; Experiment wp131): −0.5377
logFC CDK4 (P11802) ([4]; Experiment wp108): −0.8731
logFC CDK4 (P11802) ([4]; experiment wp114): −0.3781
logFC CDK4 (P11802) ([4]; experiment wp131): −1.029
logFC WEE1 (P30291-1) ([2]; Experiment wp108): −1.98
logFC of WEE1 ([2]; experiment wp108): −1.98
logFC of WEE1 ([2]; experiment wp131): −2.183
logFC WEE1 (P30291-1) ([2]; experiment wp131): −2.183

Cc1cnc(Nc2ccc(N3CCN(CCCCCCC(=O)N[C@H](C(=O)N4C[C@H](O)C[C@H]4C(=O)N[C@@H](C)c4ccc(-c5scnc5C)cc4)C(C)(C)C)CC3)cc2)nc1Nc1cccc(S(=O)(=O)NC(C)(C)C)c1 [JWG.123]
logFC AAK1 [1, 6]: −1.091
logFC AAK1 [1, 7]: −1.091
logFC of WEE1 ([2]; experiment wp195): −1.368
logFC of WEE1 (P30291-1) ([2]; experiment wp195, direction of change down): −1.368

CCc1cnn2c(N(Cc3ccc(N)nc3)C(=O)CCOCCOCCOCCNC(=O)CNc3cccc4c3C(=O)N(C3CCC(=O)NC3=O)C4=O)cc(N3CCCC[C@H]3CCO)nc12 (some centres unmarked) [MFH.5.115.2]
logFC CDK4 (P11802) ([4]; experiment wp076): −0.7246
logFC of WEE1 [2, 10]: −0.7664
logFC WEE1 (P30291-1) ([2]; experiment wp076): −0.7664

O=C1CCC(N2C(=O)c3cccc(NCCCCCCCCN4CCC(NC(=O)c5[nH]ncc5NC(=O)c5c(Cl)cccc5Cl)CC4)c3C2=O)C(=O)N1 (centres unmarked) [MFH.5.126.1]
logFC CDK4 (P11802) ([4]; experiment wp076): −0.608
logFC of WEE1 [2, 10]: −0.9048
logFC WEE1 (P30291-1) ([2]; experiment wp076): −0.9048

CS(=O)(=O)Nc1cccc(-c2csc3cnc(Nc4ccc(N5CCN(CCOCCOCCOc6cccc7c6C(=O)N(C6CCC(=O)NC6=O)C7=O)CC5)cc4)nc23)c1 (centres unmarked) [RSS0628]
logFC AAK1 [1, 8]: −1.24
logFC AAK1 [1, 9]: −1.24
logFC CDK6 ([3]; experiment wp045): −1.743
logFC of CDK6 (Q00534) ([3]; Experiment wp045): −1.743
logFC CDK4 (P11802) ([4]; experiment wp045): −1.422
logFC WEE1 (P30291-1) ([2]; experiment wp045): −1.578

CC(C)S(=O)(=O)c1ccccc1Nc1nc(Nc2ccc(N3CCN(CCOCCNC(=O)CNc4ccc5c(c4)C(=O)N(C4CCC(=O)NC4=O)C5=O)CC3)cc2)ncc1Cl (centres unmarked) [SK.3.93]
logFC AAK1 ([1]; AAK1 (Q2M218-1), experiment wp016, down): −1.588
logFC AAK1 ([1]; AAK1, accession Q2M218-1, experiment wp016, direction of change down): −1.588
logFC CDK6 ([3]; experiment wp016): −0.8585
logFC of CDK6 (Q00534) ([3]; Experiment wp016): −0.8585
logFC CDK4 (P11802) ([4]; experiment wp016): −1.305
logFC WEE1 (P30291-1) ([2]; experiment wp016): −1.176

CC(C)S(=O)(=O)c1ccccc1Nc1nc(Nc2ccc(N3CCN(CCOCCOCCC(=O)NCCNc4cccc5c4CN(C4CCC(=O)NC4=O)C5=O)CC3)cc2)ncc1Cl (centres unmarked) [TL13.97]
logFC AAK1 ([1]; AAK1 (Q2M218-1), experiment wp137, down): −2.479
logFC AAK1 ([1]; AAK1, accession Q2M218-1, experiment wp137, direction of change down): −2.479
logFC CDK6 ([3]; experiment wp137): −0.5967
logFC of CDK6 (Q00534) ([3]; Experiment wp137): −0.5967
logFC CDK4 (P11802) ([4]; experiment wp137): −0.9676
logFC of WEE1 ([2]; experiment wp137): −1.585
logFC WEE1 (P30291-1) ([2]; experiment wp137): −1.585

NC(=O)c1c(F)cccc1Nc1nc(Nc2ccc(S(=O)(=O)NCCOCCOCCOCCOCCNc3cccc4c3C(=O)N(C3CCC(=O)NC3=O)C4=O)cc2)ncc1Br (centres unmarked) [TMX.02.138]
logFC AAK1 [1, 11]: −1.129
logFC AAK1 [1, 12]: −1.129

Cc1cc(Nc2ncc(Br)c(Nc3cccc(F)c3C(N)=O)n2)ccc1S(=O)(=O)NCCOCCOCCOCCOCCNc1cccc2c1C(=O)N(C1CCC(=O)NC1=O)C2=O (centres unmarked) [TMX.02.174]
logFC STK35 ([5]; Accession Q8TDR2, experiment wp146, direction down): −0.5631
logFC STK35 ([5]; STK35 (Q8TDR2), experiment wp146): −0.5631
logFC AAK1 [1, 11]: −1.62
logFC AAK1 [1, 12]: −1.62
logFC of WEE1 ([2]; experiment wp146): −1.142
logFC WEE1 (P30291-1) ([2]; experiment wp146): −1.142

Nc1ncc(-c2ccc(S(=O)(=O)N(CCCNC(=O)CCOCCOCCOCCOCCOCCNc3cccc4c3C(=O)N(C3CCC(=O)NC3=O)C4=O)C3CC3)cc2)cc1-c1ccc2c(c1)CCNC2=O (centres unmarked) [WH.10417.099]
logFC STK35 ([5]; Accession Q8TDR2, experiment wp056, direction down): −2.073
logFC STK35 ([5]; Accession Q8TDR2, experiment wp103, direction down): −1.239
logFC STK35 ([5]; Accession Q8TDR2, experiment wp107, direction down): −1.954
logFC STK35 ([5]; STK35 (Q8TDR2), experiment wp056): −2.073
logFC STK35 ([5]; STK35 (Q8TDR2), experiment wp103): −1.239
logFC STK35 ([5]; STK35 (Q8TDR2), experiment wp107): −1.954
